Measured values as given in patent publication US8354401B2, “Oxazolidinone amide aromatic compounds for supressing MMP-9 production” (Mitsubishi Tanabe Pharma Corporation, priority 2008, dated 2013).
pIC50: −log10 of the molar value.

Columns and labels:
[1] = test system: rat monoiodoacetic acid-induced osteoarthritis model; experiment: Suppressive action on articular joints injury of rat monoiodoacetic acid-induced osteoarthritis model; type: in vivo; details: LEW rat
Description: Suppressive Action on Articular Joints Injury of Rat Monoiodoacetic Acid-Induced Osteoarthritis Model
Monoiodoacetic acid solution (0.3 mg/25 μL) was injected into the right hindpaw knee joint cavity of anesthetized rats (LEW, male, 7-week-old). […] On day 7, right hindpaw knee joint was taken from euthanized rats, and fixed with 10% neutral formalin solution. A pathology specimen of knee joint was prepared, stained with Hematoxylin Eosin and Safranine O, and the state of joint cartilage injury was scored under microscopic observation. For articular joint injury scores, changes in each pathological finding in medial condyle of femur and medial condyle of tibia (cartilage surface tuberosity, erosion/ulcer/fibrillation, chondrocyte disorganization/disappearance/hypertrophy, reduction of Safranine staining) were divided into mild, moderate and severe according to the method of Kobayashi et al. (Kobayashi K et al. J. Vet. Med. Sci. 65, 1195 1199 2003), and indicated in the scores of 1, 2 and 3 and totaled. Furthermore, an average of the score of medial condyle of femur and that of medial condyle of tibia was determined and used as an articular joint injury score.

[2] = test system: proMMP-9 production by human TNFα stimulated THP-1 cell; experiment: Action of human TNFα stimulated THP-1 cell on proMMP-9 production (ELISA of culture supernatant); type: cell-based; details: THP-1 cells, human TNFα 10 ng/mL, 24 hr; IC50 from 10, 100 and 1,000 nmol/L; read-out: Experimental Example 1 proMMP-9 production suppression (IC50)
Description: Action of Human TNFα Stimulated THP-1 Cell on proMMP-9 Production
(§1) THP-1 cell (human monocytic leukemia cell line) was adjusted to 1×10^7 cells/mL in a culture medium (10% fetal bovine serum/RPMI1640 medium), and dispensed to a 96 well multiplate. This was equilibrated under the conditions of 37° C./5% CO2, and a culture medium containing human TNFα (final concentration 10 ng/mL) and a test compound was added thereto. After incubation under the conditions of 37° C./5% CO2 for 24 hr, the culture medium was centrifugated and the culture supernatant was collected, which was subjected to the following measurement.
Quantification of proMMP-9 in Culture Supernatant
The proMMP-9 concentration of the collected culture supernatant was quantified using a commercially available measurement reagent (manufactured by GE Healthcare, MMP-9, Human, Biotrak ELISA System).
Calculation of proMMP-9 Suppression Rate
The proMMP-9 suppression rate of the test compound was calculated from the following formula: % suppression=100−((Test−Min)/(Max−Min)×100) wherein Max is proMMP-9 concentration of culture supernatant induced by stimulation with human TNFα, without addition of a test compound (added with solvent alone) • Min is proMMP-9 concentration of culture supernatant without addition of a test compound (added with solvent alone) and without stimulation with human TNFα, and • Test is proMMP-9 concentration of culture supernatant induced by stimulation with human TNFα when a test compound is added.
Furthermore, the concentration of the test compound necessary for suppressing proMMP-9 production by human TNFα stimulated THP-1 cell by 50% (IC50 value) was calculated from 3 points of proMMP-9 suppression rate at test compound concentrations of 10, 100 and 1,000 nmol/L.

[3] = test system: proMMP-2 production by THP-1 cell; experiment: Action of THP-1 cell on hemostatic type proMMP-2 production (ELISA of culture supernatant); type: cell-based, human; details: THP-1 cells, 24 hr
Description: Action of THP-1 Cell on Hemostatic Type proMMP-2 Production
as §1, with “containing” for “containing human TNFα (final concentration 10 ng/mL) and”
Quantification of proMMP-2 in Culture Supernatant
The proMMP-2 concentration of the collected culture supernatant was quantified using a commercially available measurement reagent (manufactured by GE Healthcare, MMP-2, Human, Biotrak ELISA System).
Calculation of proMMP-2 Suppression Rate
The proMMP-2 suppression rate of the test compound was calculated from the following formula: % suppress=100−((Test/Cont)×100). wherein Cont is proMMP-2 concentration of culture supernatant without addition of a test compound (added with solvent alone) and Test is proMMP-2 concentration of culture supernatant with addition of a test compound.

[4] = test system: rat adjuvant induced arthritis model; experiment: Suppressive action on hindpaw edema of rat adjuvant induced arthritis model; type: in vivo; details: LEW rat, difference of hindpaw volume day 15 vs day 21, in mL (unit assumed)
Description: Suppressive Action on Hindpaw Edema of Rat Adjuvant Induced Arthritis Model
Anesthetized rats (LEW, male, 6-week-old) were immunized with M. Butyricum (5 mg/mL) at a dose of 0.1 mL/body by subcutaneous administration from the tail root. […] The test compound was orally administered once a day from immediately after allocation on day 15 to day 20 at doses of 3 and 30 mg/kg, and the hindpaw volume was measured again on day 21. The amount of hindpaw edema was the difference in the amount between hindpaw volume on day 15 and that on day 21.

[5] = test system: rat dinitrobenzene-induced colitis model; experiment: Suppressive action on large intestine weight increase of rat dinitrobenzene-induced colitis model; type: in vivo; details: Wistar rat, 30 mg/kg oral once a day to day 7, measured day 8
Description: Suppressive Action on Large Intestine Weight Increase of Rat Dinitrobenzene-Induced Colitis Model
A dinitrobenzene solution (30 mg/0.1 mL) was injected into the large intestine of anesthetized rats (Wistar, male, 6-week-old). A test compound was orally administered once a day from the previous day of the dinitrobenzene injection to day 7 at a dose of 30 mg/kg. On day 8, the large intestine was isolated from euthanized rats, and the wet weight thereof was measured. The large intestine weight was amended to the weight per 100 g body weight of the rats on day 8.

[6] = 10 mg/kg oral once a day to day 6, scored day 7
[7] = 3 mg/kg oral once a day to day 6, scored day 7

pIC50 [2]	Structure (SMILES)	Experimental Example 2 proMMP-2 production suppression (% suppression, 10 μM) [3] [%]	further results
–	Cc1cnc(N2CCN(C(=O)c3ccc(N4C(=O)OC[C@H]4C)cc3S(C)(=O)=O)CC2)c(C)c1 [Example 81, (R)-3-{4-[4-(3,5-dimethylpyridin-2-yl)piperazine-1-carbonyl]-3-methanesulfonylphenyl}-4-methyloxazolidin-2-one]	–	articular joint injury score of compound administration group [1, 6]: 4.4 ± 0.4
7.40	Cc1ccc(N2CCN(C(=O)c3ccc(N4CCOC4=O)cc3S(C)(=O)=O)CC2)c(C)c1 [Example 11, 3-{4-[4-(2,4-dimethylphenyl)piperazine-1-carbonyl]-3-methanesulfonylphenyl}oxazolidin-2-one]	12.4	–
7.96	Cc1ccc(N2CCN(C(=O)c3ccc(N4C(=O)OC[C@H]4CO)cc3S(C)(=O)=O)CC2)c(C)c1 [Example 19, (R)-3-{4-[4-(2,4-dimethylphenyl)piperazine-1-carbonyl]-3-methanesulfonylphenyl}-4-hydroxymethyloxazolidin-2-one]	22.5	–
7.36	Cc1ccc(N2CCN(C(=O)c3c(F)cc(N4CCOC4=O)cc3F)CC2)c(C)c1 [Example 1, 3-{4-[4-(2,4-dimethylphenyl)piperazine-1-carbonyl]-3,5-difluorophenyl}oxazolidin-2-one]	17.4	–
–	Cc1cnc(N2CCN(C(=O)c3ccc(N4C(=O)OC[C@H]4C)nc3)CC2)c(C)c1.Cl.Cl [Example 109, (R)-3-{5-[4-(3,5-dimethylpyridin-2-yl)piperazine-1-carbonyl]pyridin-2-yl}-4-methyloxazolidin-2-one 2hydrochloride]	–	articular joint injury score of compound administration group [1, 7]: 4.1 ± 0.4
7.23	Cc1ccc(N2CCN(C(=O)c3ccc(N4CCOC4=O)cc3C)CC2)c(C)c1 [Example 6, 3-{4-[4-(2,4-dimethylphenyl)piperazine-1-carbonyl]-3-methylphenyl}oxazolidin-2-one]	12.6	–
–	Cc1ccc(C(=O)C2CCN(C(=O)c3ccc(N4CCOC4=O)nc3)CC2)cc1 [Example 42, 3-{5-[4-(4-methylbenzoyl)piperidine-1-carbonyl]pyridin-2-yl}oxazolidin-2-one]	–	articular joint injury score of compound administration group [1, 6]: 3.8 ± 0.7
7.32	Cc1ccc(N2CCN(C(=O)c3ccc(N4CCOC4=O)cc3)CC2)c(C)c1 [Example 8, 3-{4-[4-(2,4-dimethylphenyl)piperazine-1-carbonyl]phenyl}oxazolidin-2-one]	11.6	hindpaw edema volume ([4]; 3 mg/kg oral once a day day 15 to day 20): 0.27 ± 0.17; hindpaw edema volume ([4]; 30 mg/kg oral once a day day 15 to day 20): 0.20 ± 0.18; articular joint injury score of compound administration group [1, 7]: 4.4 ± 0.5; large intestine weight (g/100 g body weight) [5]: 0.457 ± 0.031 g/100 g body weight
